Assay results from PMC10629545, “Identification of a second glycoform of the clinically prevalent O1 antigen from Klebsiella pneumoniae” (Proceedings of the National Academy of Sciences of the …, 2023).

Target: T1, His6-WbbZ (WbbZ pyruvyltransferase) (Klebsiella pneumoniae, UniProt A0A0C4KUT2)
T1 construct: His6-tagged, expressed in E. coli TOP10, Ni-NTA purified
Assay: PAGE of reaction products; MS and NMR
Type: biochemical
Settings: pyruvyl donor, 10 mM PEP; acceptor formed by WbbY; pH 7.5, 10 mM MgCl2, 30 °C

T1 sequence (A0A0C4KUT2 entry or part of it): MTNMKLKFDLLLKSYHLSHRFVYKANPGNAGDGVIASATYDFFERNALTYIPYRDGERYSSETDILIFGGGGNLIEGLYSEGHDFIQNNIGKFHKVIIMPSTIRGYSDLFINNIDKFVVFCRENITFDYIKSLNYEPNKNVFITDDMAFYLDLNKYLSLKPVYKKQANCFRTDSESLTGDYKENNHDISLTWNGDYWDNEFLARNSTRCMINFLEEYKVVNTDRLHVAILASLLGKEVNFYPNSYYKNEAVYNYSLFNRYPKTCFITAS

**Q.** With `C=C(OP(=O)(O)O)C(=O)O` [PEP] as the compound, how does the “PAGE of reaction products; MS and NMR” value read?
**A.** phosphoenolpyruvate (PEP)-dependent reduction of the size of the reaction products
